Experimental data: US6006753A, “Use of GLP-1 or analogs to abolish catabolic changes after surgery” (Eli Lilly and Company, priority 1997, dated 1999)

How the values were obtained:
[1] = Blood glucose in NIDDM patients infused for three hours at each meal during the day (Example 3); format: in vivo, human; details: five NIDDM patients
Source text: During the day, GLP-1 (7-36) amide was infused into five NIDDM patients for three hours during breakfast, lunch, and dinner.

[2] = Blood glucose in NIDDM patients continuously infused for ten hours during the night (Example 2); format: in vivo, human; details: five NIDDM patients
Procedure: GLP-1 (7-36) amide was administered by a subcutaneous infusion at a dose rate of 1.2 pmol/kg/hr, for ten hours during the night, to five patients having non-insulin dependent diabetes (NIDDM). […] The rate of insulin infusion was adjusted every two hours to achieve optimum control, and to avoid hypoglycemia.

[3] = overnight glucose infusion 5 mg/kg/min before elective abdominal surgery (Ljungqvist 1994); cited from earlier work
[4] = Glucose infusion rate (GIR) in hyperinsulinemic, normoglycemic clamp, preop vs postop, elective surgery patients; format: in vivo, human
Procedure: (§1) After one hour at steady state conditions, all patients underwent a standardized surgical treatment (hipartroplasty). […] The hyperinsulinemic, normoglycemic clamp was then maintained during surgery and continued for a further 3-4 hours after surgery. The data will be presented according to the following nomenclature:
(§2) The control group received no basal or preop clamp on the day of surgery.
(§3) All values are individual values, or mean+SEM (standard error of the mean). Statistical significance is accepted at p<0.05 using Wilcoxon's signed rank test and the Mann-Whitney U-test for paired and unpaired data respectively.

[5] = Hormone levels (RIA) in patients undergoing hipartroplasty with hyperinsulinemic, normoglycemic clamp before and during surgery; format: in vivo, human; design: Glucagon / Cortisol: unit not given here
Procedure: as §1, §2
Blood samples were collected from a heated hand vein repeatedly during the basal, preop, early op, late op and postop periods. Blood glucose was measured immediately upon collection using the glucose oxidase method (Yellow Springs Instruments, Yellow Springs, Ohio) [Hugget, A. S., et al., Lancet 2:368-70 (1957)]. […] Methods of hormone radioimmunoassay, Academic Press, New York and London (1979) pp. 643-56]; and glucagon (Euro-Diagnostica AB, Malm6, Sweden) [Faloona, G. R., et al., Glucagpn radioimmunoassay technique. 5 Vol. 1: Academic Press, New York (1974)].
as §3

[6] = Indirect calorimetry: substrate oxidation rates and energy expenditure during and after surgery; format: in vivo, human
Procedure: Indirect calorimetry (Deltatrac® Dansjoo, Sweden) [Frayn, K. N. J. Appl. Physiol. 55(2):628-34 (1983); Takala, J., et al., Crit. Care Med. 17(10): 1041-47 (1989)] was performed for 30 minutes during the basal phase, twice during surgery (early op and late op), and during the last 30 minutes of the preop and postop clamps. Timed sampling of urine for analysis of urinary urea excretion was performed. After correction for changes in urea pool size [Tappy, L, et al., Diabetes 37:1212-16 (1988)], non-protein energy expenditure (EE), respiratory quotients (RQ) and substrate oxidation rates were calculated.

[7] = Hour 7:00, GLP-1 (7-36) amide infused three hours from start of each meal, insulin sc injection just before each meal
[8] = Hour 21:00, continuous infusion for ten hours during the night (GLP-1 (7-36) amide sc 1.2 pmol/kg/hr; insulin rate adjusted every two hours)
[9] = insulin group vs control, p<0.05
[10] = basal, 30 min before start of insulin infusion, insulin group n=7, mean ± SEM
[11] = early op, insulin 0.8 mU/kg/min iv, n=7
[12] = late op, insulin 0.8 mU/kg/min iv, n=7
[13] = postop clamp, insulin 0.8 mU/kg/min iv, n=7
[14] = preop clamp, insulin 0.8 mU/kg/min iv, n=7

CC[C@H](C)[C@H](NC(=O)[C@H](Cc1ccccc1)NC(=O)[C@H](CCC(=O)O)NC(=O)[C@H](CCCCN)NC(=O)[C@H](C)NC(=O)[C@H](C)NC(=O)[C@H](CCC(N)=O)NC(=O)CNC(=O)[C@H](CCC(=O)O)NC(=O)[C@H](CC(C)C)NC(=O)[C@H](Cc1ccc(O)cc1)NC(=O)[C@H](CO)NC(=O)[C@H](CO)NC(=O)[C@@H](NC(=O)[C@H](CC(=O)O)NC(=O)[C@H](CO)NC(=O)[C@@H](NC(=O)[C@H](Cc1ccccc1)NC(=O)[C@@H](NC(=O)CNC(=O)[C@H](CCC(=O)O)NC(=O)[C@H](C)NC(=O)[C@@H](N)Cc1c[nH]cn1)[C@@H](C)O)[C@@H](C)O)C(C)C)C(=O)N[C@@H](C)C(=O)N[C@@H](Cc1c[nH]c2ccccc12)C(=O)N[C@@H](CC(C)C)C(=O)N[C@H](C(=O)N[C@@H](CCCCN)C(=O)NCC(=O)N[C@@H](CCCNC(=N)N)C(N)=O)C(C)C [GLP-1 (7-36) amide, GLP-1(7-36) amide]
Average Blood Glucose [1, 7]: 5.4 mM | Average Blood Glucose ([1]; Hour 8:00, meal-time dosing): 4.9 mM | Average Blood Glucose ([1]; Hour 9:00, meal-time dosing): 5.7 mM | Average Blood Glucose ([1]; Hour 10:00, meal-time dosing): 5.8 mM | Average Blood Glucose ([1]; Hour 11:00, meal-time dosing): 8.1 mM | Average Blood Glucose ([1]; Hour 12:00, meal-time dosing): 9.4 mM | Average Blood Glucose ([1]; Hour 13:00, meal-time dosing): 7.2 mM | Average Blood Glucose ([1]; Hour 14:00, meal-time dosing): 5.3 mM | Average Blood Glucose ([1]; Hour 15:00, meal-time dosing): 7.2 mM | Average Blood Glucose ([1]; Hour 16:00, meal-time dosing): 10.4 mM | Average Blood Glucose ([1]; Hour 17:00, meal-time dosing): 9.2 mM | Average Blood Glucose ([1]; Hour 18:00, meal-time dosing): 5.7 mM | Average Blood Glucose ([1]; Hour 19:00, meal-time dosing): 6.6 mM | Average Blood Glucose ([1]; Hour 20:00, meal-time dosing): 8.3 mM | Average Blood Glucose ([1]; Hour 21:00, meal-time dosing): 9.3 mM | Blood glucose level immediately after terminating each infusion [1]: increased significantly | Post-prandial glucose excursions observed with insulin injection ([1]; while GLP-1 was infused): eliminated | Average Blood Glucose ([2]; Hour 0:00, night infusion): 4.4 mM | Average Blood Glucose ([2]; Hour 1:00, night infusion): 4.4 mM | Average Blood Glucose ([2]; Hour 2:00, night infusion): 4.8 mM | Average Blood Glucose ([2]; Hour 3:00, night infusion): 5.2 mM | Average Blood Glucose ([2]; Hour 4:00, night infusion): 5.4 mM | Average Blood Glucose ([2]; Hour 5:00, night infusion): 5.8 mM | Average Blood Glucose ([2]; Hour 6:00, night infusion): 6.0 mM | Average Blood Glucose ([2]; Hour 7:00, night infusion): 6.2 mM | Average Blood Glucose [2, 8]: 7.5 mM | Average Blood Glucose ([2]; Hour 22:00, night infusion): 5.4 mM | Average Blood Glucose ([2]; Hour 23:00, night infusion): 4.1 mM | Metabolic control compared with insulin ([2]; night infusion): better than that achieved by insulin | Effect on blood glucose ([2]; subcutaneous infusion 1.2 pmol/kg/hr, ten hours during the night): nearly normalized blood glucose

O=C[C@H](O)[C@@H](O)[C@H](O)[C@H](O)CO [glucose]
Average loss of insulin sensitivity after the operation [3]: 32%

insulin: insulin (Actrapid®, Novo, Copenhagen) in Example 1; insulin comparator in Examples 2 and 3
Catabolic changes after surgery ([4]; elevated insulin levels before and maintained throughout the operation): completely abolished | Change in average GIR in the postop clamp compared to the preop clamp ([4]; insulin group n=7, p=0.2): +16±20% | Average GIR during the postop clamp compared to the control group [4, 9]: significantly higher | Average Blood Glucose [1, 7]: 6.1 mM | Average Blood Glucose ([1]; Hour 8:00, meal-time dosing): 7.0 mM | Average Blood Glucose ([1]; Hour 9:00, meal-time dosing): 9.1 mM | Average Blood Glucose ([1]; Hour 10:00, meal-time dosing): 9.9 mM | Average Blood Glucose ([1]; Hour 11:00, meal-time dosing): 8.2 mM | Average Blood Glucose ([1]; Hour 12:00, meal-time dosing): 6.5 mM | Average Blood Glucose ([1]; Hour 13:00, meal-time dosing): 9.1 mM | Average Blood Glucose ([1]; Hour 14:00, meal-time dosing): 8.1 mM | Average Blood Glucose ([1]; Hour 15:00, meal-time dosing): 7.0 mM | Average Blood Glucose ([1]; Hour 16:00, meal-time dosing): 7.2 mM | Average Blood Glucose ([1]; Hour 17:00, meal-time dosing): 6.5 mM | Average Blood Glucose ([1]; Hour 18:00, meal-time dosing): 7.3 mM | Average Blood Glucose ([1]; Hour 19:00, meal-time dosing): 6.1 mM | Average Blood Glucose ([1]; Hour 20:00, meal-time dosing): 6.0 mM | Average Blood Glucose ([1]; Hour 21:00, meal-time dosing): 6.4 mM | C-peptide [5, 10]: .68 ± .09 | Cortisol [5, 10]: 171 ± 41 | Glucagon [5, 10]: 58 ± 7 | C-peptide ([5]; early op (10 to 40 min after initiation of surgery), insulin 0.8 mU/kg/min iv, n=7): .42 ±.06 | Cortisol [5, 11]: 234 ± 46 | Glucagon [5, 11]: 40 ± 3 | C-peptide levels during surgery compared to the control group ([5]; insulin group vs fasted control): lower | Serum insulin levels ([5]; insulin group, during surgery and the postop clamp, 0.8 mU/kg/min iv): around 60 μU/ml | Serum cortisol levels after surgery ([5]; insulin group, vs preop): decreased | Serum glucagon levels after surgery ([5]; insulin group, vs preop, p<0.05): decreased | C-peptide ([5]; late op (last 30 min of surgery), insulin 0.8 mU/kg/min iv, n=7): .58 ± .12 | Cortisol [5, 12]: 212 ± 44 | Glucagon [5, 12]: 35 ± 4 | C-peptide [5, 13]: .52 ± .11 | Cortisol [5, 13]: 172 ± 83 | Glucagon [5, 13]: 33 ± 4 | Cortisol [5, 14]: 266 ± 35 | Glucagon [5, 14]: 52 ± 3 | C-peptide ([5]; preop clamp, insulin 0.8 mU/kg/min iv, n=7, mean ± SEM): .45 ± .05 | Average Blood Glucose ([2]; Hour 0:00, night infusion): 5.6 mM | Average Blood Glucose ([2]; Hour 1:00, night infusion): 5.1 mM | Average Blood Glucose ([2]; Hour 2:00, night infusion): 5.2 mM | Average Blood Glucose ([2]; Hour 3:00, night infusion): 5.4 mM | Average Blood Glucose ([2]; Hour 4:00, night infusion): 5.7 mM | Average Blood Glucose ([2]; Hour 5:00, night infusion): 6.0 mM | Average Blood Glucose ([2]; Hour 6:00, night infusion): 6.1 mM | Average Blood Glucose ([2]; Hour 7:00, night infusion): 6.1 mM | Average Blood Glucose [2, 8]: 6.9 mM | Average Blood Glucose ([2]; Hour 22:00, night infusion): 6.6 mM | Average Blood Glucose ([2]; Hour 23:00, night infusion): 5.9 mM | Substrate oxidation rates at the postop clamp as compared to the preop clamp ([6]; insulin group): no change | Resting energy expenditure (EE) during or after surgery, between groups ([6]; insulin group vs control): did not differ | Fat oxidation rates during surgery [6, 9]: significantly lower | Glucose oxidation rates during surgery [6, 9]: significantly higher
